The results in this text go back to PMC3767324, “Synthesis, Characterization, and BSA Binding Studies of Some New Benzamides Related to Schiff Base” (ISRN Organic Chemistry, 2013).

Data set [1] addresses T1, bovine serum albumin (BSA) (Bos taurus, UniProt P02769).
T1 construct: Bovine serum albumin (BSA), one of the major components in plasma protein; purchased Sigma Aldrich Bangalore
The data set can be described thus: fluorescence quenching of BSA, binding parameters. To be noted: for n (number of binding sites) / K sv (Stern-Volmer quenching constant) / K q (quenching rate constant) / shift of BSA fluorescence emission maximum wavelength: 298 K; for K sv (Stern-Volmer quenching constant): BSA 1.00 × 10^−5 mol L^−1, Tris-HCl pH 7.4; for K q (quenching rate constant): τ0 = 10^−8 s; for shift of BSA fluorescence emission maximum wavelength: excitation 280 nm, emission around 340 nm. The procedure:
All the chemicals and solvents were of AR grade. Solvents were used as supplied by commercial sources without any further purification. BSA (essentially fatty-acid-free) was purchased from Sigma Aldrich Bangalore and stored in refrigerator at 4.0°C. BSA solution was prepared in the Tris-HCl buffer solution (0.05 mol L^−1 Tris, 0.15 mol L^−1 NaCl, pH 7.4) and it was kept in the dark at 298 K. The compounds were prepared as stock solutions using DMF. All other reagents were of analytical reagent grade, and double-distilled water was used during the experiment.
For each of the […] active compounds (5a, 5c, 5g, 5h, 5i, and 5j), the binding parameters with BSA molecules were measured by fluorescence spectroscopy. A solution (2.5 mL) containing 1.00 × 10^−5 mol L^−1 BSA was titrated by successive additions of 1.00 × 10^−3 mol L^−1 NABP stock solution and the concentration of NABP varied from 0 to 3.0 × 10^−5 mol L^−1 (a–g). Titrations were done manually by using microinjector. Fluorescence intensity was measured (excitation at 280 nm and emission at 340 nm). All experiments were performed at 298 K.
In order to investigate the quenching mechanism, the fluorescence quenching data K 0 and n were analyzed by the Stern-Volmer equation (2): (2) F0/F=1+Ksv[Q]=1+Kqτ0[Q], where F 0 and F denote the steady-state fluorescence intensities in the absence and in the presence of quencher, respectively, K 0 is binding constant of BSA, [Q] is the equilibrium concentration of the quencher, and n is the number of binding sites. The average lifetime, τ 0 of the molecule without quencher is 10^−8 s.
When the quenching mechanism is static, the binding parameters between BSA and compounds can be determined using (3): (3) log(F0−F)/F=log Ka+n log[Q].
The plot of log[(F 0 − F)/F] versus log[NABP], binding constant K a, and binding sites n were calculated from the intercept and slope. […] The value of n approximately equaled 1.

Data set [2] has as its target T1, bovine serum albumin (BSA). The data set can be described thus: energy transfer from BSA to compound (Forster theory). The format is binding. To be noted: for J (spectral overlap): BSA emission / compound UV absorption; for R 0 (critical energy transfer distance): K^2 = 2/3, N = 1.311, Φ = 0.118. From the text:
The binding distance (r) between a protein residue (donor) and a bound drug molecule (acceptor) can be calculated from Foster's nonradiative energy transfer theory. The efficiency of energy transfer E and the distance between the acceptor and donor r can be defined as the following equation [36]: (4) E=1−(F/F0)=R06/R06+r^6, where r is the distance between the acceptor and donor; F and F 0 are the fluorescence intensities of BSA in the presence of and in the absence of quencher, respectively; R 0 is the critical energy transfer distance when the transfer efficiency is 50%. It is given by the following equation: (5) R06=8.8×10^−25K^2N^−4ΦJ.
K ^2 is a factor describing the spatial orientation factor related to the geometry of the donor and acceptor of dipoles; N is the refractive index of medium; Φ is the fluorescence quantum yield of the donor in the absence of acceptor; J is the effect of spectra overlap between the fluorescence emission spectrum of the donor and the UV-vis absorption spectrum of the acceptor, and J can be calculated by (6): (6) J=f(λ)ε(λ)λ^4Δλ/ΣF(λ)Δλ, where F(λ) is the corrected fluorescence intensity of the donor in the wavelength range from λ to λ + Δλ and ε(λ) is the molar absorption coefficient of the acceptor at wavelength λ. In the present case, K ^2 = 2/3, N = 1.311, and Φ = 0.118 for BSA molecules, respectively.

T1 sequence (P02769 25-607): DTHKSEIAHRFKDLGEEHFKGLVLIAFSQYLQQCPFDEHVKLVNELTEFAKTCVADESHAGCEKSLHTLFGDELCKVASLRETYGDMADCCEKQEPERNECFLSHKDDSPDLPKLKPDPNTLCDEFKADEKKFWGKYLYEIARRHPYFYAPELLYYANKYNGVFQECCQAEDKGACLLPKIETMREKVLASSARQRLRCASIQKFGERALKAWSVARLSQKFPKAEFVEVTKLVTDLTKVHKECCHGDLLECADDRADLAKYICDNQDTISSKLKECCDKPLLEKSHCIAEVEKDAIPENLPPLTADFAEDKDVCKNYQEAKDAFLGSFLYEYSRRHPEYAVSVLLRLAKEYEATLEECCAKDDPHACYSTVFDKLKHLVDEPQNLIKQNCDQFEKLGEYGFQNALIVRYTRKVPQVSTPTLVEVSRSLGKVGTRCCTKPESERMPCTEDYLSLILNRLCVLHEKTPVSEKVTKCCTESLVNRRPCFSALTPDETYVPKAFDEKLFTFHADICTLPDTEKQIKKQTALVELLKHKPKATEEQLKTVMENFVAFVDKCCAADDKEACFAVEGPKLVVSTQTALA

`CC(=O)N(C(=O)c1cc(F)ccc1F)c1ccc(N=Cc2cc3ccccc3o2)cc1` [Compound 5a, N-acetyl-N-(4-((benzofuran-2-ylmethylene)amino)phenyl)-2,5-difluorobenzamide]: the melting point (commonly the temperature, or range, at which the solid turns liquid) was 197 °C. For the same molecule, in data set [1], the dissociation constant Kd – broadly, the free concentration of one partner at which half of the binding sites on the other are occupied at equilibrium, for simple one-to-one binding – is 1.9 µM; the “n (number of binding sites)” value worked out at 1.180; the “K sv (Stern-Volmer quenching constant)” value is 99600 L/mol; the “K q (quenching rate constant)” value was found to be 9.96e+12 M⁻¹ s⁻¹. In addition, in data set [1], the “shift of BSA fluorescence emission maximum wavelength” value (shortened to “shift”) was “slight blue shift”. In data set [2], the “E (efficiency of energy transfer)” value was determined as 0.11; the “r (binding distance between donor BSA and acceptor)” value was found to be 3.77 nm; the “J (spectral overlap)” value is recorded as 1.05 × 10^−14 cm^3 L mol^−1; the “R 0 (critical energy transfer distance)” value is 2.51 nm.

Regarding `CC(=O)N(C(=O)c1ccc(O)cc1)c1ccc(N=Cc2cc3ccccc3o2)cc1` [Compound 5j, N-acetyl-N-(4-((benzofuran-2-ylmethylene)amino)phenyl)-4-hydroxybenzamide], the melting point turned out to be 213 °C. Further, in data set [1], binding was put at a Kd of 91.7 µM, the “n (number of binding sites)” value came out at 0.961, the “K sv (Stern-Volmer quenching constant)” value worked out at 23900 L/mol and the “K q (quenching rate constant)” value turned out to be 2.39e+12 M⁻¹ s⁻¹. In data set [1], the “shift” value is listed as “red shift”. In data set [2], the “E (efficiency of energy transfer)” value amounted to 0.14; the “r (binding distance between donor BSA and acceptor)” value is 4.09 nm; the “J (spectral overlap)” value is on record as 4.26 × 10^−14 cm^3 L mol^−1; the “R 0 (critical energy transfer distance)” value came to 3.02 nm.

Consider `CC(=O)N(C(=O)c1cc(F)c(F)c(F)c1)c1ccc(N=Cc2cc3ccccc3o2)cc1` [Compound 5g, N-acetyl-N-(4-(benzofuran-2-ylmethyleneamino)phenyl)-3,4,5-trifluorobenzamide], for which the melting point is 190 °C. Also, in data set [1], the Kd was 6.37 µM, the “n (number of binding sites)” value was found to be 1.281, the “K sv (Stern-Volmer quenching constant)” value was determined as 79800 L/mol and the “K q (quenching rate constant)” value was 7.98e+12 M⁻¹ s⁻¹. For the same molecule, the “shift” value in data set [1] is given as “slight blue shift”. In addition, in data set [2], the “E (efficiency of energy transfer)” value is 0.31; the “r (binding distance between donor BSA and acceptor)” value stood at 3.07 nm; the “J (spectral overlap)” value is 2.37 × 10^−14 cm^3 L mol^−1; the “R 0 (critical energy transfer distance)” value was 2.86 nm.

`CC(=O)N(C(=O)c1ccccc1)c1ccc(N=Cc2cc3ccccc3o2)cc1` [Compound 5c, N-acetyl-N -(4-((benzofuran-2-ylmethylene)amino)phenyl)benzamide] had a melting point of 192 °C. Also, in data set [1], the Kd is 38.6 µM, the “n (number of binding sites)” value was determined as 0.855, the “K sv (Stern-Volmer quenching constant)” value came to 19300 L/mol and the “K q (quenching rate constant)” value was 1.93e+12 M⁻¹ s⁻¹. In addition, the “shift” value in data set [1] is reported as “red shift”. Further, in data set [2], the “E (efficiency of energy transfer)” value is listed as 0.14; the “r (binding distance between donor BSA and acceptor)” value is listed as 4.11 nm; the “J (spectral overlap)” value is reported as 3.05 × 10^−14 cm^3 L mol^−1; the “R 0 (critical energy transfer distance)” value is listed as 3.04 nm.

`CC(=O)N(C(=O)c1cc(F)cc(F)c1)c1ccc(N=Cc2cc3ccccc3o2)cc1` [Compound 5h, N-acetyl-N-(4-((benzofuran-2-ylmethylene)amino)phenyl)-3,5-difluorobenzamide] gave a melting point of 187 °C. Moreover, in data set [1], binding was put at a Kd of 12.7 µM, the “n (number of binding sites)” value was 1.136, the “K sv (Stern-Volmer quenching constant)” value was 21300 L/mol and the “K q (quenching rate constant)” value was 2.13e+12 M⁻¹ s⁻¹. Moreover, in data set [1], the “shift” value was “red shift”. In addition, in data set [2], the “E (efficiency of energy transfer)” value came out at 0.15; the “r (binding distance between donor BSA and acceptor)” value was 2.93 nm; the “J (spectral overlap)” value is given as 4.91 × 10^−14 cm^3 L mol^−1; the “R 0 (critical energy transfer distance)” value came to 2.16 nm.

Turning to `COc1ccc(C(=O)N(C(C)=O)c2ccc(N=Cc3cc4ccccc4o3)cc2)cc1` [Compound 5i, N-acetyl-N-(4-(benzofuran-2-ylmethyleneamino)phenyl)-4-methoxybenzamide], the melting point is 205 °C. Also, in data set [1], binding was put at a Kd of 1.57 µM, the “n (number of binding sites)” value turned out to be 1.208, the “K sv (Stern-Volmer quenching constant)” value is 74000 L/mol and the “K q (quenching rate constant)” value is 7.4e+12 M⁻¹ s⁻¹. Besides, the “shift” value in data set [1] is listed as “slight blue shift”. In addition, in data set [2], the “E (efficiency of energy transfer)” value came out at 0.33; the “r (binding distance between donor BSA and acceptor)” value is 3.17 nm; the “J (spectral overlap)” value is 2.79 × 10^−14 cm^3 L mol^−1; the “R 0 (critical energy transfer distance)” value was 2.83 nm.
